Entries after “also recorded” stand apart in the source; their conditions may differ.
How the values were obtained:
[1] = test system: ConA stimulated human lymphocytes; assay: Human mitogenic (ConA) stimulation, 3H-thymidine incorporation; assay type: cell-based; conditions: for activation / proliferative response: 5 μg/ml ConA, harvest 72 hours, drug titration (FIGS. 7A, 8A, 9A, 17, 33)
Procedure: Blood from healthy volunteers was drawn using venipuncture, using Vacutainer collection sets and heparinized collection vials. The blood was diluted 1:1 using HBSS to a total volume of 30 ml in 50 ml conical tubes (Fisher Scientific, Co., Pittsburgh, Pa.). […] Cells from the buffy coats were collected and the residual Histopaque was washed away using repeated centrifugations in HBSS. After washes, cells were resuspended at 5 million cells per ml in RPMI, supplemented with 2% FBS. To remove adherent cells, the suspension was plated onto a 6 well flat-bottom plate (Corning Costar), 3 ml/well, and incubated for 2 hours at 37° C., 5% CO2. Non-adherent cells were harvested after this incubation, were counted and resuspended in RPMI supplemented with 10% human serum (Sigma).
All drugs were pre-plated before the cell suspension was added onto each well of a 96-well round-bottom plate. All experimental conditions were assayed in at least triplicate. Cells suspended in RPMI supplemented with 10% human serum were plated at 100,000 cells per well to a final volume of 200 μl. […] Control samples received no ConA stimulation. The plates were incubated at 37° C. and 5% CO2.

[2] = test system: allogeneic stimulation of human lymphocytes; assay: Human mixed lymphocyte reaction (allogeneic stimulation), 3H-thymidine; assay type: cell-based; conditions: allogeneic stimulation, harvest 120 hours, drug titration (FIGS. 7B, 8B, 9B)
Source text: Blood from two healthy, non-related, donors was taken as described above. Peripheral blood mononuclear cells were isolated as described previously elsewhere. The adherent cells were separated from the suspension cells as described previously for both donors. Suspension cells from both donors (donors A and B) were used as responders. The remaining adherent cells from each of the donors were used as stimulators against a different donor (suspension A against adherent B and adherent A against suspension B). The stimulator cells were irradiated at 35 Gy. Drugs were pre-plated onto 96 well, U-bottom plates in triplicate. 200,000 “stimulator” cells in RPMI supplemented with 10% human serum were then plated in each well. 200,000 “responder” cells in the same medium were then plated over stimulators to a final volume of 200 μl/well. Background controls received either no stimulator cells, or no responder cells. The plates were incubated at 37° C. and 5% CO2. 1 μCi of tritiated thymidine was added to each well after 4.5 days, and the plates were harvested 12 hours later.

[3] = test system: allogeneic CTL response against P815 cells; assay: Murine allograft model, CTL killing of P815 target cells by splenocytes; assay type: in vivo, C57BL/6J mice; conditions: Cyclosporin A 100 μg ip daily from day −2; for allograft (CTL) response: 5HT antagonists 200 μg/injection tail vein days 6 and 8, sacrifice day 14 (FIGS. 13, 14); for allogeneic killing response: serotonin-specific compounds 300 μg/injection tail vein days 5 and 7, sacrifice day 14 (FIGS. 18A, 18B)
Procedure: The in vivo validation screen used was an art-recognized murine allogeneic rejection model as described in Zhan et al., 2000. For this assay, a complete MHC miss-match system was employed wherein 5×10^6 P815 cells ([H-2^d] DBA/2 mastocytoma) were injected into the peritoneal cavity of C57BL/6J (H-2^b) mice on day 0 of the experiment. These mice typically generate a strong cytotoxic T lymphocyte (CTL) reaction in response to P815 cells. Following the initial P815 cell inoculation, the mice were allowed to develop a CTL response (this usually takes about 10-14 days). […] Mice were then sacrificed on day 14 of the experiment as indicated in the figures; and the allogeneic CTL response was assayed as described previously (Tretiakova et al., 2000, Nature Biotechnology 18:984-988). The primary spleen cells from the treated and untreated animals were used in the direct CTL readout. Freshly obtained primary spleen cells were incubated with the [^3H] labeled target cells (P815 cells) at 100:1, 50:1, 25:1, and 12.5:1 ratios for 3.5 hours at 37° C. and harvested using a PHD harvester. The percentage of specific killing was determined using the formula % kill=(S−E)/S, where S is the amount of the DNA retained by the target cells in the absence of the effector cells and E is the amount of retained DNA in the presence of the effector cells (expressed in counts per minute; cpm).
This is an art-recognized model of allograft […] rejection based on that described by […]. (2000). In this model, there is a complete MHC mismatch between the P815 cells (H-2^d) and the C57BL6 mouse (H-2^b), thus ensuring an aggressive immune response. The data disclosed in FIG. 13, depicts results of experiments that included 6 treatment groups, each group consisting of three mice. Each mouse received 5×10^6 P815 cells injected into the peritoneal cavity on day 0 of the study. The first group was an untreated control group, which was used to establish the baseline response of the mice against the allogeneic stimulus. These mice, without any further treatments, were sacrificed, as were the other treatment groups, on day 14 of the study and their splenocytes assayed for target-specific killing of the P815 cells.
The average kill observed for the untreated group was about 45% at an effector to target ratio of 100:1. The second group was treated with risperidone, a 5HT-2 antagonist, administered via a tail vein bolus injection (200 μg/injection) on days 6 and 8 of the study. The timing of the drug administration was selected to ensure that the T cells were fully activated prior to the drug treatment. The third group was treated with propanolol, a 5HT-1 antagonist. All of the 5HT receptor antagonist-treated groups were treated as described for the risperidone-treated group. The fourth group was treated chronically with CyclosporinA. The Cyclosporin A was administered ip at a dosage of 100 μg/injection starting two days prior to the onset of the study, i.e., at day −2, and the injections were continued on a daily basis for the duration of the study.
Finally, studies conducted in vivo using the CD8-dependent allograft rejection model, in which P815 cells (a rapidly growing cell line taken from a mastocytoma in a DBA mouse), were expanded and used to create a robust rejection response in a C57BL6 mouse. In this study the mice received 5×10^6 P815 cells injected into their peritoneal cavity on day 0 of the study. The first group was an untreated control group (naïve animals), used to acquire the baseline response of the mice against the allogeneic stimulus. The positive controls were treated with the allogeneic cells without any further treatments. These animals were used to assess the induced allogeneic response against the P815 cells. […]

[4] = test system: RPMI 8226 multiple myeloma cells; assay: RPMI 8226 cell viability and proliferation (trypan blue, MTT, 3H-thymidine); assay type: cell-based, human; conditions: 3H-thymidine uptake, drug titration (FIGS. 19-25, 31, 32)
Procedure: The human plasmacytoma (multiple myeloma) cell line, RPMI 8226 (American Type Culture Collection, Manassas, Va.), was cultured in RPMI 1640 supplemented with 10 mM HEPES, 1 mM sodium pyruvate, 4.5 g/L glucose, 1.5 g/L bicarbonate and 20% FBS (non-heat inactivated).
Cell proliferation was assayed by three methods—Trypan Blue Exclusion was used to quantify the number of viable cells in culture; 3-(4,5-dimethylthiazol-2-yl)-2,5-diphenyl tetrazolium bromide (MTT) reduction was used to assay mitochondrial activity (and thus cell viability); and ^3H-Thymidine uptake was employed to assay for active DNA synthesis.
Three separate indicators of cell proliferation were employed to study the effects of 5-HT receptor modulating agents on the human multiple myeloma cell line, RPMI 8226. Cells were plated at 4 separate densities and were treated with LY53587 (an antagonist of the 5-HT2A/2B/2C receptors) at a range of concentrations. The exclusion of trypan blue dye was used as an indicator of cell viability. Cell numbers were then plotted against the concentration of drug added.
MTT reduction was also used as an indicator of cell viability (more specifically, mitochondrial activity). Absorbance values at OD570 were then plotted against drug concentration. Finally, DNA synthesis was assayed, through the measurement of ^3H-thymidine uptake, and counts per minute (CPMs) were plotted against drug concentration.
Culturing and administration of drugs and ^3H-thymidine were performed as described elsewhere herein.

RPMI-8226 cells = assay: Cytospin histochemistry (H&E, bis-benzamide) for chromatin; assay type: cell-based, human; conditions: 9 hour treatments, 50 μM SB compounds, 2 μM camptothecin (FIGS. 28, 29)
Procedure: 2.0×10^5 RPMI-8226 cells were cultured, in 6-well culture plates, in the presence of the indicated drug concentrations, in a total of 5 mL RPMI-1640 supplemented with 10% FBS. Each well was harvested in its entirety and divided into two identical samples for cytospins.
1.0×10^5 RPMI-8226 cells from each treatment group were loaded into Cyto-funnels and centrifuged at 500 rpm for 4 minutes with medium acceleration. Slides were then fixed through graded methanol in PBS (100%, 5 minutes; 80%, 5 minutes; 50%, 5 minutes), washed for 5 minutes in PBS and stored in PBS at 4° C. until stained.
Cytospun slides were stained with Hematoxylin and Eosin, followed by the nuclear stain, bis-benzamide, rinsed and mounted according to standard staining protocols. Slides were visualized under both brightfield and fluorescent light to generate matched images of the same slide field (see, e.g., FIGS. 28 and 29).

SMILES: N[C@@H](Cc1ccc(Cl)cc1)C(=O)O (racemic) [PCPA, para-chlorophenylalanine]
- mitogenic response ([1]; human PBLs, 1 μg/ml ConA, PCPA titration (FIG. 3)): inhibits the mitogenic response in a dose-dependent manner

SMILES: N[C@@H](Cc1c[nH]c2ccc(O)cc12)C(=O)O [5-hydroxytryptophan]
- proliferation response ([1]; 25 μM, in the absence of PCPA (FIG. 3)): significantly enhanced the proliferation response
- reversal of PCPA inhibition of mitogenic response ([1]; added to PCPA-inhibited cells (FIG. 3)): this inhibition can be reversed

SMILES: OC(CN1CCN(c2cccc(Cl)c2)CC1)C(c1ccccc1)c1ccccc1 (stereo not drawn) [BRL 15572]
- activation / proliferative response [1]: had no effect upon the proliferative response
- activation / proliferative response [2]: had no effect upon the proliferative response

SMILES: CC(O)C(C)OC(=O)[C@@H]1C[C@@H]2c3cccc4c3c(cn4C(C)C)C[C@H]2N(C)C1 (stereo partly drawn) [LY 53857]
- activation / proliferative response [1]: inhibit the activation response at pharmacologically relevant concentrations
- activation / proliferative response [2]: inhibit the activation response at pharmacologically relevant concentrations

SMILES: Cn1ccc2cc3c(cc21)CCN3C(=O)Nc1cccnc1 [SB 206553]
- activation / proliferative response [1]: inhibit the activation response at pharmacologically relevant concentrations
- in vitro activation / proliferation of (helper) T cells [1]: immediate cessation of proliferation
- activation / proliferative response [2]: inhibit the activation response at pharmacologically relevant concentrations
- allograft (CTL) response [3]: Two of the treated mice had the allogeneic response completely suppressed; also recorded: Two of the three treated mice inhibited the allograft response to a degree equivalent to that observed in the Cyclosporin A-treated animals
- allograft (CTL) response ([3]; listed as SB206553): inhibited the allograft response to varying degrees
- allogeneic killing response [3]: striking

SMILES: Cc1cc2c(cc1Cl)N(C(=O)Nc1ccc(Oc3cccnc3C)nc1)CC2 [SB 242084]
- inhibitory profile on mitogenic stimulation ([1]; 1 μg/ml ConA, harvest 72 h, drug added at time=0 or 48 hours (FIG. 12)): retained the complete inhibitory profile
- activation / proliferative response [1]: inhibit the activation response at pharmacologically relevant concentrations
- activation / proliferative response [2]: inhibit the activation response at pharmacologically relevant concentrations
- growth / proliferation of RPMI 8226 cells [4]: strong inhibition of growth
- chromatin condensation / fragmentation (apoptosis) (RPMI-8226 cells): induced programmed cell death comparable to that induced by the topoisomerase I inhibitor, camptothecin
- chromatin condensation / fragmentation (apoptosis) (RPMI-8226 cells; listed as SB242084): condensed and fragmented chromatin

SMILES: COc1ccccc1N1CCN(CCN(C(=O)C2CCCCC2)c2ccccn2)CC1 [WAY 100635]
- in vitro activation / proliferation of (helper) T cells [1]: significantly inhibits the activation response

SMILES: CC[C@@]1(O)C(=O)OCc2c1cc1n(c2=O)Cc2cc3ccccc3nc2-1 [camptothecin]
- chromatin condensation / fragmentation (apoptosis) (RPMI-8226 cells): Extensive chromatin condensation and nuclear fragmentation

SMILES: CSc1ccc2c(c1)C(N1CCN(C)CC1)Cc1ccccc1S2 (stereo not drawn) [methiothepin]
- activation / proliferative response [1]: inhibit the activation response at pharmacologically relevant concentrations
- activation / proliferative response [2]: inhibit the activation response at pharmacologically relevant concentrations
- growth / proliferation of RPMI 8226 cells [4]: strong inhibition of growth

SMILES: CC[C@@H](CO)NC(=O)[C@@H]1C=C2c3cccc4c3c(cn4C)C[C@H]2N(C)C1 [methysergide]
- allograft (CTL) response [3]: inhibited the allograft response to varying degrees
- allogeneic killing response [3]: complete inhibition of the induced killing response; also recorded: abrogated the allogeneic killing response; also recorded: inhibition profile was striking

SMILES: NNCCc1ccccc1 [phenelzine]
- drug concentration giving significant inhibition ([1]; 0.1 and 1 μg/ml ConA (FIGS. 5A, 5B)): 10 to 100 µM
- drug concentration at which full inhibition occurs ([1]; higher ConA stimulation (10 μg/ml)): 100 to 400 µM
- proliferative response ([1]; highest ConA dose 10 μg/ml, harvest 72 hours (FIG. 5C)): no inhibition was observed
- stimulation of ConA-activated human PBLs ([1]; reagents at 400 μM, time course (FIG. 4)): completely shut down the stimulation

Reference: US20060135415A1, “Immunomodulation and effect on cell processes relating to serotonin family receptors and the blood-brain barrier” (priority 2002, published 2006)
